Source: patent US20220062258A1, “Heterocyclic derivatives” (Merck Patent GmbH, priority 2019, published 2022)

Legend:
[1] = tested on: HUVEC primary endothelial cells; assay: HUVEC proliferation assay (CyQUANT Direct); type: cell-based; settings: Homo sapiens, 72 h, 3 days incubation
Description: HUVEC Proliferation Assay
Proliferation of HUVEC primary endothelial cells was used as cell-based mechanistical assay.^25 Applying the CyQUANT@ Direct Cell Proliferation Assay (Invitrogen C35011) which is based on a cell-permeant fluorescent DNA-binding dye, DNA content is used as a direct measure for cell number. Pooled HUVEC cells (Promocell C-12203) are cultivated in the medium supplied by Promocell (Cat No C-22020) for maximum 4 passages. For the assay 500 cells/well are seeded into black 384-well culture plates with clear bottom in 70 μl culture medium and incubated for 6 hours at 37° C., 5% CO2. 10 μl prediluted test compounds are added and cells incubated for 3 days at 37° C., 5% CO2 before measurement of DNA content. CyQUANT detection reagent is prepared according to the manufacturers protocol, 20 μl/well added and incubated at 37° C., 5% CO2 for at least 1 h before measurement of fluorescence at Envision multimode reader (Perkin-Elmer, Waltham) with excitation 480 nm and emission 535 nm (bottom read mode). The assay is performed as dose response with 10 compound dilutions. Inhibitory values (IC50) were determined using the program ASSAY ANALYZER® from GeneData (Basel, Switzerland).

[2] = biological target: T1, MetAP-2 (Homo sapiens, UniProt P50579); assay: Biochemical activity testing of MetAP-2 (enzyme-coupled assay, Met-Ala-Ser substrate); set-up: N-terminal His tag human rec MetAP2 (prepared in house, AA 2-478, final concentration (fc) 123 nM); His tag (N); TEV cleavage site (N); made in house
Description: Biochemical Activity Testing of MetAP-2
MetAP-2 activity was determined by an enzyme-coupled assay using the tripeptide Met-Ala-Ser (MAS) as substrate and recombinant human MetAP-2 (His-Tev-MetAP-2, prepared at Merck). The released methionine is converted by L-amino acid oxidase (AAO) to oxidized Methionine and hydrogen peroxide is released. In a second step horse radish peroxidase catalyzes the oxidation of the leuko dye dianisidine to oxidized dianisidine using hydrogen peroxide as co-substrate. The produced dianisidine ox was detected photometrically as increase in absorbance at 450 nm. Met-AP2 activity was determined in a kinetic measurement mode. The release of one molecule methionine corresponds to the production of one molecule dianisidine ox. The MetAP2 enzymatic activity is directly corresponding to the increase in absorbance per time.
In detail, the assay was performed in 384 well microtiter plate (Greiner 78110 MTP, transparent) in a total reaction volume of 50 μl at 22° C. 0.35 μg of N-terminal His tag human rec MetAP2 (prepared in house, AA 2-478, final concentration (fc) 123 nM), 1 unit horse radish Peroxidase (Roche, Mannheim), 0.02 unit L-amino acid oxidase (Merck, Darmstadt), 0.6 mM dianisidine (Merck, Darmstadt, dissolved in 50 mM HCl, 10% DMSO) were incubated in the absence or presence of the test compound (10 dilution concentrations) in 100 mM Hepes, 50 mM NaCl, 50 μM MnCl2 at pH 7.0 for 15 min at 22° C. The reaction was started by the addition of 500 μM (fc) MAS peptide (Merck, Darmstadt). After mixing the first absorbance measurement was performed on an Envision multimode reader (Perkin-Elmer, Waltham) at wavelength of 450 nm. The reaction was incubated at 22° C. for additional 45 min and the second absorbance measurement was performed. The increase of absorbance per time was determined. The control value used was the inhibitor-free reaction with 0.5% DMSO (fc). As pharmacological inhibitor control Fumagillin (Merck, Darmstadt) in a final concentration of 5 μM was used. The inhibitory values (IC50) were determined using the program ASSAY ANALYZER® from GeneData (Basel, Switzerland).
Target sequence in this assay (P50579 2-478): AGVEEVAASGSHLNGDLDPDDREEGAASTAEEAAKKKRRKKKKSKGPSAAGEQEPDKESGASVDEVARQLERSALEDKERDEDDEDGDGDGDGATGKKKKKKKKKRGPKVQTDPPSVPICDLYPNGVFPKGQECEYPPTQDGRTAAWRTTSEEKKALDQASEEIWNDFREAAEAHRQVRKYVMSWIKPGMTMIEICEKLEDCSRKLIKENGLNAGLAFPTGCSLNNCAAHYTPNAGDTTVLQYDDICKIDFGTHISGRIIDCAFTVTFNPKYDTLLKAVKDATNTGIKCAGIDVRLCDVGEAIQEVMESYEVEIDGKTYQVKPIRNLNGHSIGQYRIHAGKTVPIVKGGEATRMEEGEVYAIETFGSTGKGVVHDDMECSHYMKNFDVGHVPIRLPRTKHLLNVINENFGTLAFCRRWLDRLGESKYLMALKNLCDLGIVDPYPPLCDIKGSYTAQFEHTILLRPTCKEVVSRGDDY

[3] = biological target: T1, MetAP-2; assay: Degradation of MetAP-2 in HCT116 cells (Western blot, MetAp2/GAPDH signal); type: cell-based; set-up: endogenous in cells; host or cells: HCT116; settings: 0.1 μM, 24 hrs, HTC116 cells; <1 means degradation
Description: See scans below. […] The initial MetAP-2 degradation results were obtained after 24 h incubation of the compounds in three different concentrations (0.1; 1; 10 μM), cell lysis, SDS-PAGE separation, blotting and antibody aided detection.
Comparison of MetAP2 protein levels in HTC116 cells after compound treatments at different concentrations and time points. As control, DMSO was used and its values set as “1”. MetAp2 values <1 means degradation.
2. Exemplary Testing of the Compound
HCT116 cells were sown in 6-well plates. Pipette 1 mL fresh medium to every well and incubate for at least 1 h (37° C., 5% CO2, 95% rH).
Harvest and count cells in Vi-Cell. Equinr. 70198475 Adjust cell concentration to 0.35e^6 cells/mL and add 1 mL of cell suspension (total 0,35e^6 cells/well).
Incubate cells for 24 hours (37° C., 5% CO2, 95% rH)
HCT116: 24 h: ˜50% confluent before treatment
Compounds will be thawed the first time, stock: 10 mM; final concentration: 10 μM & 1 μM & 0.1 μM
Treatment with DMSO based solution with Digital Dispenser: HCT116 platte 2A1.jpg_meta.xml • create new dispensing protocol for compound • apply name of test compound and its stock concentration (in mM) for testing • 3×1:10 dilution series • final 0.3% DMSO, DMSO normalization for every well • shaking after compound/DMSO addition
Incubate cells for further 24 hours (37° C., 5% C02, 95% rH)
HCT116: 70-80% confluent before lysis • after incubation cells were lysed with RIPA lysis buffer including Halt™
all steps performed on ice or at 4° C. • aspirate supernatant from cells • wash cells twice with 2.0 mL ice cold PBS buffer • aspirate supernatant from cells after each washing step • lyse cells with 100 μL Ripa lysis buffer per well • scrape cells with cell scraper and transfer lysates to Eppendorf Cups • incubate for 15 min on ice • centrifuge […] at 13000×g and 4° C. • transfer supernatants to fresh Eppendorf cups • removal of 20 μL lysate for BCA assay • aliquot and freeze at −20° C.
Determination of protein concentration of lysates with BCA Protein Assay Kit. BSA supplied with the kit is 2 mg/mL.
Dilute the standard (Stock BSA concentration=2 mg/mL) in a 96 well plate: Samples were run 1:4. Dilute in lysing buffer, lysing buffer alone was run to determine the background from detergents in the assay.
BCA reagent: Dilute Reagent A and Reagent B in a 1:50 ratio. To 9.8 mL A add 200 μL B.
Assay Procedure: Pipette 5 μL/well of standard or samples to 96 wells (see plate layout). Samples were run in duplicate. Blanks=5 μL/well PBS or 5 μL/well lysing buffer. Add 100 μL/well of the prepared BCA reagent. Tap plate to mix or shake for 1-2 min on the Eppendorf mixer. Incubate at 37° C. for 30 min.
Read the OD at 562 nm. Plate was read on EnVision 2104 Multilabel Reader (Perkin Elmer, Equipment Number 70160330) last verification of instrument 17.08.2017 (once a year) (A25/531). AEH181012_BCA.csv
In EXCEL the duplicates were averaged and the average background PBS was subtracted for the standard curve.
A trend line was created, the intercept (b) was set at 0. The R^2 should be >0.950 for acceptable results. The lysate buffer blank was subtracted from the test values and the averaged, background-corrected O.D. values were used with the equation to calculate mg/ml and then were corrected for the dilution factor for the final mg/mL value. Only results from OD values within the range of the standard curve are acceptable. Values outside of the standard curve range are ignored. BCA AEH00350 Berechnung.xlsx
6. Sample Calculation and Preparation • thaw lysates of AEH00350 on ice • calculate sample volume for Western Blot loading 10 μg total protein/13 μL per slot: • dilute samples with lysis buffer and 10× reducing agent & 4×LDS buffer to 10 μg. • heat them at 70° C. for 10 min and 1000 rmp
Target sequence in this assay (P50579 whole entry, the tested form may be a part): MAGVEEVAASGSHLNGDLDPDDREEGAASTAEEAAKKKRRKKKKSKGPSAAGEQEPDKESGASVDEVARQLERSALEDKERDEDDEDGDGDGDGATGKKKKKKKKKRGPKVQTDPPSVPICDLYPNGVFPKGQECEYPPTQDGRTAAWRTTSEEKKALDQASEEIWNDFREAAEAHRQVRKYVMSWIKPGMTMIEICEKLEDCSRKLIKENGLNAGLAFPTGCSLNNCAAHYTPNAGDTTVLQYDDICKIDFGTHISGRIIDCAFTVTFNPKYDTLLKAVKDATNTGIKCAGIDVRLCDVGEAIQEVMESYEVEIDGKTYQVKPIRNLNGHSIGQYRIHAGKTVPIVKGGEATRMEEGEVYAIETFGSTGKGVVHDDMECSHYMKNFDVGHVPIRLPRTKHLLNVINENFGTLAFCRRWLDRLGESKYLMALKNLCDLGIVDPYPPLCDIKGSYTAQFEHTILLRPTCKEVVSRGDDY
7. […]

[4] = biological target: T1, MetAP-2; assay: as above; type: cell-based; set-up: endogenous in cells; host or cells: HCT116; settings: 0.1 μM, 6 hrs, HTC116 cells; <1 means degradation
Target sequence in this assay (P50579 whole entry, the tested form may be a part): as above

IC50 [2]	Signal MetAp2/GAPDH normalized to untreated (DMSO) [3]	Signal MetAp2/GAPDH normalized to untreated (DMSO) [4]	SMILES	IC50 [1]
320 nM			Cc1ncsc1-c1ccc(CNC(=O)[C@@H]2C[C@@H](O)CN2C(=O)[C@@H](NC(=O)COCCOCCOCCOCCNC(=O)c2cc3cc(N4CCC(O)(C(=O)NCc5cc(F)cc(F)c5)C4=O)ccc3[nH]2)C(C)(C)C)cc1 (stereo partly drawn) [Compound A7]	7300 nM
	1.2	1.3	O=C1CCC(N2C(=O)c3cccc(NCCOCCOCCOCCOCCOCCNC(=O)c4cc5cc(N6CC(O)C(O)(C(=O)NCc7cc(F)cc(F)c7)C6=O)ccc5[nH]4)c3C2=O)C(=O)N1 (stereo not drawn) [Compound A21, 5-[3-[(3,5-difluorophenyl)methylcarbamoyl]-3,4-dihydroxy-2-oxo-pyrrolidin-1-yl]-N-[2-[2-[2-[2-[2-[2-[[2-(2,6-dioxo-3-piperidyl)-1,3-dioxo-isoindolin-4-yl]amino]ethoxy]ethoxy]ethoxy]ethoxy]ethoxy]ethyl]-1H-indole-2-carboxamide]	
330 nM			Cc1ncsc1-c1ccc(CNC(=O)[C@@H]2C[C@@H](O)CN2C(=O)[C@@H](NC(=O)COCCOCCOCCOCCOCCNC(=O)c2cc3cc(N4CCC(O)(C(=O)NCc5cc(F)cc(F)c5)C4=O)ccc3[nH]2)C(C)(C)C)cc1 (stereo partly drawn) [Compound A8, 5-[3-[(3,5-difluorophenyl)methylcarbamoyl]-3-hydroxy-2-oxo-pyrrolidin-1-yl]-N-[2-[2-[2-[2-[2-[2-[[(1S)-1-[(2S,4R)-4-hydroxy-2-[[4-(4-methylthiazol-5-yl)phenyl]-methylcarbamoyl]pyrrolidine-1-carbonyl]-2,2-dimethyl-propyl]amino]-2-oxoethoxy]ethoxy]ethoxy]ethoxy]ethoxy]ethyl]-1H-indole-2-carboxamide]	30000 nM
330 nM			O=C1CCC(N2C(=O)c3cccc(NCCOCCOCCNC(=O)c4cc5cc(N6CCC(O)(C(=O)NCc7cc(F)cc(F)c7)C6=O)ccc5[nH]4)c3C2=O)C(=O)N1 (stereo not drawn) [Compound A5, 5-[3-[(3,5-difluorophenyl)methylcarbamoyl]-3-hydroxy-2-oxo-pyrrolidin-1-yl]-N-[2-[2-[2-[[2-(2,6-dioxo-3-piperidyl)-1,3-dioxo-isoindolin-4-yl]amino]ethoxy]-ethoxy]ethyl]-1-H-indole-2-carboxamide]	5800 nM
370 nM			Cc1ncsc1-c1ccc(CNC(=O)[C@@H]2C[C@@H](O)CN2C(=O)[C@@H](NC(=O)COCCOCCNC(=O)c2cc3cc(N4CCC(O)(C(=O)NCc5cc(F)cc(F)c5)C4=O)ccc3[nH]2)C(C)(C)C)cc1 (stereo partly drawn) [Compound A6, 5-[3-[(3,5-difluorophenyl)methylcarbamoyl]-3-hydroxy-2-oxo-pyrrolidin-1-yl]-N-[2-[2-[2-[[(1S)-1-[(2S,4R)-4-hydroxy-2-[[4-(4-methylthiazol-5-yl)phenyl]methylcarbamoyl]pyrrolidine-1-carbonyl]-2,2-dimethyl-propyl]amino]-2-oxoethoxy]ethoxy]ethyl]-1H-indole-2-carboxamide]	30000 nM

The next lines start with the compound.

SMILES	IC50 [2]	Signal MetAp2/GAPDH normalized to untreated (DMSO) [3]	Signal MetAp2/GAPDH normalized to untreated (DMSO) [4]	IC50 [1]
Cc1ncsc1-c1ccc(CNC(=O)[C@@H]2C[C@@H](O)CN2C(=O)[C@@H](NC(=O)CCCCCNC(=O)c2cc3cc(N4CC[C@@](O)(C(=O)NCc5cc(F)cc(F)c5)C4=O)ccc3[nH]2)C(C)(C)C)cc1 (mixture of isomers) [Compound A3, (3RS)—N-[(3,5-difluorophenyl)methyl]-3-hydroxy-1-{2-[(5-{[(2S)-1-[(2S,4R)-4-hydroxy-2-({[4-(4-methyl-1,3-thiazol-5-yl)phenyl]methyl}carbamoyl)pyrrolidin-1-yl]-3,3-dimethyl-1-oxobutan-2-yl]carbamoyl}pentyl)carbamoyl]-1H-indol-5-yl}-2-oxopyrrolidine-3-carboxamide]	550 nM			30000 nM
O=C1CCC(N2C(=O)c3ccc(NCCCCCNC(=O)c4cc5cc(N6CCC(O)(C(=O)NCc7cc(F)cc(F)c7)C6=O)ccc5[nH]4)cc3C2=O)C(=O)N1 (stereo not drawn) [Compound A4, 5-[3-[(3,5-difluorophenyl)methylcarbamoyl]-3-hydroxy-2-oxo-pyrrolidin-1-yl]-N-[5-[[2-(2,6-dioxo-3-piperidyl)-1,3-dioxo-isoindolin-5-yl]amino]pentyl]-1H-indole-2-carboxamide]	480 nM			1600 nM
O=C1CCC(N2C(=O)c3ccc(OCCOCCOCCOCCOCCNC(=O)c4cc5cc(N6CC[C@](O)(C(=O)NCc7cc(F)cc(F)c7)C6=O)ccc5[nH]4)cc3C2=O)C(=O)N1 (stereo partly drawn) [Compound A52, 5-[(3S)-3-{[(3,5-difluorophenyl)methyl]carbamoyl}-3-hydroxy-2-oxopyrrolidin-1-yl]-N-(14-{[2-(2,6-dioxopiperidin-3-yl)-1,3-dioxo-2,3-dihydro-1H-isoindol-5-yl]oxy}-3,6,9,12-tetraoxatetradecan-1-yl)-1H-indole-2-carboxamide]				4900 nM
